SMILES strings stand for the structures.

This test deals with T1, Hepsin (Homo sapiens, UniProt P05981).
T1 construct: gene HPN; Recombinant hepsin (R&D Systems)
Kind of test: Fluorogenic protease assay with recombinant hepsin ([…]) and BOC-Gln-Arg-Arg-AMC ([…]), pH […] h incubation with drug. The format is biochemical.

T1 sequence (P05981 45-162 limits assumed): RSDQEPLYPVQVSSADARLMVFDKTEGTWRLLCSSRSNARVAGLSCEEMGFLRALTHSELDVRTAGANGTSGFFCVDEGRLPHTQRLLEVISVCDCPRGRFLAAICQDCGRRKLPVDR
T1 sequence (P05981 163-417 limits assumed): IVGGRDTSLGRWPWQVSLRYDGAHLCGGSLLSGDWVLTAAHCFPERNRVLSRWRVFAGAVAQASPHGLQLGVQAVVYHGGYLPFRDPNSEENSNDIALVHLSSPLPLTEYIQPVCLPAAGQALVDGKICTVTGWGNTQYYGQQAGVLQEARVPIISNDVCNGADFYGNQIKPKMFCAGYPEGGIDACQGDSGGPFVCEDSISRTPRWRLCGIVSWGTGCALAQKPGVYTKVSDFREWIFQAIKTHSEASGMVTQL

Turning to `CC1(C)CCC(CN2CCN(c3ccc(C(=O)NS(=O)(=O)c4ccc(NCC5CCOCC5)c([N+](=O)[O-])c4)c(Oc4cnc5[nH]ccc5c4)c3)CC2)=C(c2ccc(Cl)cc2)C1` [Venetoclax], the IC50 (as a rule, the concentration that inhibits the measured activity by half) came out at 480 nM.

Values taken from PMC10235687, “Venetoclax is a potent hepsin inhibitor that reduces the metastatic and prothrombotic phenotypes of hepsin-expressing colorectal cancer cells” (Frontiers in Molecular Biosciences, 2023).
